Test results: patent publication US20240124408A1 (Sanofi, priority 2020, published 2024)
Where a name gives a salt, the structure may show the parent alone.

Assays:
Assay type in all cases: cell-based
human TRPM8 [1] = target: T1, human TRPM8 (Homo sapiens, UniProt Q7Z2W7); experiment: In vitro human TRPM8 fluorescence calcium flux assay (recombinant CHO cells, Fluo4-AM, FDSS6000); details: recombinant CHO cells expressing human TRPM8; menthol-related EC50, normalized to 100 μM menthol
T1 construct: expressed in transfected cells; host or cells: CHO (p658 mammalian expression vector)
T1 sequence (Q7Z2W7 whole entry): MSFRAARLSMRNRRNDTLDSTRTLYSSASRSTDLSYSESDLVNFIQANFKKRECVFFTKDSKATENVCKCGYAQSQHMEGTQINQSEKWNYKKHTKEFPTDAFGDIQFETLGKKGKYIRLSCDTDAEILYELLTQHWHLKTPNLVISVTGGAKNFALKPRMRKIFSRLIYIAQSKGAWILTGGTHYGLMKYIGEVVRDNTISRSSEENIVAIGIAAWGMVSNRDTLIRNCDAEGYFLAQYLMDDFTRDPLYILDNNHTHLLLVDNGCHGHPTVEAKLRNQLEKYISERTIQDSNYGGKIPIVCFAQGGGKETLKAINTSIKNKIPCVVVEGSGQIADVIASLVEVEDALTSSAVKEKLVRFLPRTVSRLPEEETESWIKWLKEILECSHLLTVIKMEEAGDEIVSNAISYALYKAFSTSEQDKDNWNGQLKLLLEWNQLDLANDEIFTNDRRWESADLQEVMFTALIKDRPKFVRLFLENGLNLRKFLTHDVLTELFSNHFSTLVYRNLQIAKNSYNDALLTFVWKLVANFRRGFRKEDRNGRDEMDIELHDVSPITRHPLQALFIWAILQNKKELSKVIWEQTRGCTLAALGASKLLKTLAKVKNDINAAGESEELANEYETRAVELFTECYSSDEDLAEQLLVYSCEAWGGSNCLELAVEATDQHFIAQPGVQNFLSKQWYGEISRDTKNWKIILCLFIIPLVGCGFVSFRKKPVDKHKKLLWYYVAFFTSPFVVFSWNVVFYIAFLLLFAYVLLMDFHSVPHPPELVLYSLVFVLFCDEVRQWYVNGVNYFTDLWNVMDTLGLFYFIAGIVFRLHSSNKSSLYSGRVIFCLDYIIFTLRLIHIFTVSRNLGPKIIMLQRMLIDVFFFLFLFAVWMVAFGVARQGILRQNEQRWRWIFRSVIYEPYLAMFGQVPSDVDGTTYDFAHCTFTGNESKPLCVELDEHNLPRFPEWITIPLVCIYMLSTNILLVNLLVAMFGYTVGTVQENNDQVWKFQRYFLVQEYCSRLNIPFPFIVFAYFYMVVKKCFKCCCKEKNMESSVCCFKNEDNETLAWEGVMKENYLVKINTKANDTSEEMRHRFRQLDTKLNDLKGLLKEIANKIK
Method in brief: (§1)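 Agonist EC50 values come from sixteen-point dose responses normalized to the 100 μM menthol maximum, fitted sigmoidally. Calcium rise was followed for 3 min post-addition in recombinant CHO lines (human or pig TRPM8). Cells were dye-loaded with 2 μM Fluo4-AM, 1 h at room temperature, probenecid-containing HBSS.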

human TRPM8 [2] = target: T1, human TRPM8; experiment: In vitro human TRPM8 automated patch-clamp assay (SyncroPatch 384PE, CHO cells); details: CHO cells expressing human TRPM8, 28° C.
Method: (§2) In Vitro Pig and Human TRPM8 Automated Patch-Clamp Assays
(§3) Automated whole-cell recordings of compound effects were performed on the SyncroPatch 384PE (Nanion Technologies, Munich, Germany) incorporated into a Biomek FX pipetting robot (Beckman Coulter, Jersey City, NJ, USA) using the same engineered CHO cell lines expressing human or pig TRPM8 channels. Data acquisition and analysis were performed with the proprietary software PatchControl 384 and DataControl 384, respectively (Nanion Technologies, Munich, Germany). All recordings were carried out using planar borosilicate glass patch clamp chips in a 384-microtiter plate format with patch hole resistances of 2-4 MO. For recordings, standard intracellular solution was used containing (in mM): 130 KF, 4 NaCl, 1 MgCl2, 0.5 CaCl2, 10 HEPES and 10 EGTA/KOH (pH 7.2) and standard extracellular solution contained in mM: 150 NaCl, 4 KCl, 0.5 CaCl2, 1 MgCl2 and 10 HEPES (pH 7.3).
(§4) Prior to the electrophysiological measurements, cells were harvested using Accutase (GIBCO, Fisher Scientific) and resuspended in warmed extracellular solution. The cell suspension was kept in the dedicated cell reservoir at 28° C. at a 1 million/ml cell density and shaken at 500 rounds per min (rpm). Experiments were performed at 28° C. throughout. Cells were distributed in high resistance 4-holes-per-well Nanion chips where they were caught on the patch holes by application of a −80 mbar pressure. The cell membrane was ruptured to obtain the whole-cell configuration with a pressure pulse of −250 mbar for 2 seconds. Voltage protocols were constructed using PatchControl 384. The cells were held at a holding potential of −60 mV and TRPM8 currents were recorded using a ramp protocol from −80 to +80 mV every 5 seconds before and after compound addition. Resulting currents were recorded at both −80 and +80 mV and current kinetics were exported and analyzed. From each plate, control wells with 200 μM menthol were recorded to validate the assay. One concentration of compound was applied to each of the other wells. For each concentration, compound response was determined by subtracting the baseline current recorded before compound addition from the maximum peak elicited currents obtained after compound addition. Then, each compound response was normalized to control condition without compound and maximum current (Emax) obtained for each compound. Nanion DataControl 384 software plotted current response for each compound concentration and was able to calculate an EC50 value for each active compound.

pig TRPM8 [3] = target: T2, pig TRPM8 (Sus scrofa, UniProt F1SM15); experiment: In vitro pig TRPM8 automated patch-clamp assay (SyncroPatch 384PE, CHO cells); details: CHO cells expressing pig TRPM8, 28° C.
T2 construct: expressed in transfected cells; host or cells: CHO (pcDNA5/FRT/TO vector; hygromycin B and blasticidin selection)
T2 sequence (F1SM15 1-1104): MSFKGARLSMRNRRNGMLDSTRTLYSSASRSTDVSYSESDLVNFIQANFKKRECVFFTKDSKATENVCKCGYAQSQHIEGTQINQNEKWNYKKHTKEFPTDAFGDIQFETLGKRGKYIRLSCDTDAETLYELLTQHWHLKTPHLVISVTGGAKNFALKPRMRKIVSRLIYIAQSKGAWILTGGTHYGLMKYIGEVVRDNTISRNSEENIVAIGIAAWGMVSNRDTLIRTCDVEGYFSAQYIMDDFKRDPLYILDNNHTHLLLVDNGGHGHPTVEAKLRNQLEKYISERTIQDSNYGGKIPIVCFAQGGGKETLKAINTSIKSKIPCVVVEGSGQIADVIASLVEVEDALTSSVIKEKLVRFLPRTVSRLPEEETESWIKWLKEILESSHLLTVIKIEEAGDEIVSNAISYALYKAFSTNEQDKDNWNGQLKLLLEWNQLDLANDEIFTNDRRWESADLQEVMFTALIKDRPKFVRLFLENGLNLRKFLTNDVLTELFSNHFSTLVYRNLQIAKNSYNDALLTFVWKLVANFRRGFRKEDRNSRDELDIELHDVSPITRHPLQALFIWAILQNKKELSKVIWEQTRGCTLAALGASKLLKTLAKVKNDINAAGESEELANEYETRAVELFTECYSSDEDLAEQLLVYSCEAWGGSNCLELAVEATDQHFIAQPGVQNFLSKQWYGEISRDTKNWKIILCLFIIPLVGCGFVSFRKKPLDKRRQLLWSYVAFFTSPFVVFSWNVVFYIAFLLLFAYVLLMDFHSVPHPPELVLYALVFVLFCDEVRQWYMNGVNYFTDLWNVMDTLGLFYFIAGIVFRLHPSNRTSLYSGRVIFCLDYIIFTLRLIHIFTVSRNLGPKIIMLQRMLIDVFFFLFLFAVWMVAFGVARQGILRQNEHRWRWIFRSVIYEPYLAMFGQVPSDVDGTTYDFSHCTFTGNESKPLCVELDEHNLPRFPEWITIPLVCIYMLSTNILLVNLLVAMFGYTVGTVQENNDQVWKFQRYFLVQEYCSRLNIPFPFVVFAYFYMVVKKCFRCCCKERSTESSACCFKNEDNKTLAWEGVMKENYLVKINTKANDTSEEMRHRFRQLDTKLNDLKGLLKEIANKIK
Method: as §2, §3, §4

pig TRPM8 [4] = target: T2, pig TRPM8; experiment: In vitro pig TRPM8 fluorescence calcium flux assay (recombinant CHO cells, Fluo4-AM, FDSS6000); details: recombinant CHO cells expressing pig TRPM8; menthol-related EC50, normalized to 100 μM menthol
Method in brief: as §1

| Compound | EC50 (human TRPM8 [1]) [nM] | EC50 (human TRPM8 [2]) [nM] | EC50 (pig TRPM8 [3]) [nM] | EC50 (pig TRPM8 [4]) [nM] |
| --- | --- | --- | --- | --- |
| CC(C)[C@@H]1CC[C@@H](C)C[C@@]1(O)C(=O)NCC1(O)CCc2ccccc21 (stereo partly drawn) [Example 23, (1S,2S,5R)-1-hydroxy-N-((1-hydroxy-2,3-dihydro-1H-inden-1-yl)methyl)-2-isopropyl-5-methylcyclohexane-1-carboxamide] | 7 | 500 | 1070 | 6 |
| CC(C)[C@@H]1CC[C@@H](C)C[C@@]1(O)C(=O)NCCc1ccccc1OCC[N+](C)(C)C [Example 11, 2-(2-(2-((1S,2S,5R)-1-hydroxy-2-isopropyl-5-methylcyclohexane-1-carboxamido)ethyl)phenoxy)-N,N,N-trimethylethan-1-aminium iodide] | 148 | 3700 | 4900 | 298 |
| Cc1cccc(CCNC(=O)[C@]2(O)C[C@H](C)CC[C@H]2C(C)C)c1 [Example 58, (1S,2S,5R)-1-hydroxy-2-isopropyl-5-methyl-N-(3-methylphenethyl)cyclohexane-1-carboxamide] | 5.2 | 1030 | 887 | 2.2 |
| COc1cc(C=O)ccc1OC(=O)CNC(=O)[C@]1(O)C[C@H](C)CC[C@H]1C(C)C [Example 68, 4-formyl-2-methoxyphenyl ((1S,2S,5R)-1-hydroxy-2-isopropyl-5-methylcyclohexane-1-carbonyl)glycinate] | 44 | 2690 | 3640 | 32 |
| CC(C)[C@@H]1CC[C@@H](C)C[C@@]1(O)C(=O)NC[C@H](O)c1cccc(CO)c1 [Example 43, (1S,2S,5R)-1-hydroxy-N-((2R)-hydroxy-2-(3-(hydroxymethyl)phenyl)ethyl)-2-isopropyl-5-methylcyclohexane-1-carboxamide] | 191 | 4000 | 3970 | 56.9 |
| CC(C)[C@@H]1CC[C@@H](C)C[C@@]1(O)C(=O)NCC1(O)CCOc2ccccc21 (stereo partly drawn) [Example 96, (1S,2S,5R)-1-hydroxy-N-((4-hydroxychroman-4-yl)methyl)-2-isopropyl-5-methylcyclohexane-1-carboxamide] | 10.3 | 630 | 1100 | 25.2 |
| COC(=O)COc1ccccc1CCNC(=O)[C@]1(O)C[C@H](C)CC[C@H]1C(C)C [Example 61, methyl 2-(2-(2-((1S,2S,5R)-1-hydroxy-2-isopropyl-5-methylcyclohexane-1-carboxamido)ethyl)phenoxy)acetate] | 11.1 | 2910 | 5050 | 7.4 |
| CC(C)[C@@H]1CC[C@@H](C)C[C@@]1(O)C(=O)NCC(O)c1ccccc1O (stereo partly drawn) [Example 35, (1S,2S,5R)-1-hydroxy-N-(2-hydroxy-2-(2-hydroxyphenyl)ethyl)-2-isopropyl-5-methylcyclohexane-1-carboxamide] | 3 | 1010 | 1330 | 3 |
| CC(C)[C@@H]1CC[C@@H](C)C[C@@]1(O)C(=O)NCC(NC(=O)CN)c1ccccc1 (single isomer, unassigned) [Example 183] | 2.7 | 120 | 20 | 2.8 |
| COc1cc(CO)ccc1OC(=O)CNC(=O)[C@]1(O)C[C@H](C)CC[C@H]1C(C)C [Example 79, 4-(hydroxymethyl)-2-methoxyphenyl ((1S,2S,5R)-1-hydroxy-2-isopropyl-5-methylcyclohexane-1-carbonyl)glycinate] | 84.5 | 5500 | 5160 | 57.6 |
| CC(C)[C@@H]1CC[C@@H](C)C[C@@]1(O)C(=O)NCC(=O)c1ccccc1F [Example 85, (1S,2S,5R)—N-(2-(2-fluorophenyl)-2-oxoethyl)-1-hydroxy-2-isopropyl-5-methylcyclohexane-1-carboxamide] | 3.3 | 700 | 967 | 2.4 |
| COC(=O)COc1cccc(CCNC(=O)[C@]2(O)C[C@H](C)CC[C@H]2C(C)C)c1 [Example 64, methyl 2-(3-(2-((1S,2S,5R)-1-hydroxy-2-isopropyl-5-methylcyclohexane-1-carboxamido)ethyl)phenoxy)acetate] | 16.6 | 5820 | 3870 | 8.3 |
| CC(C)[C@@H]1CC[C@@H](C)C[C@@]1(O)C(=O)NCCc1cccc(C(=O)OCCN)c1 [Example 16, 2-aminoethyl 3-(2-((1S,2S,5R)-1-hydroxy-2-isopropyl-5-methylcyclohexane-1-carboxamido)ethyl) benzoate hydrochloride] | 16 | 1290 | 2370 | 13 |
| COC(=O)COc1cccc(C(O)CNC(=O)[C@]2(O)C[C@H](C)CC[C@H]2C(C)C)c1 (stereo partly drawn) [Example 33, methyl 2-(3-(1-hydroxy-2-((1S,2S,5R)-1-hydroxy-2-isopropyl-5-methylcyclohexane-1-carboxamido)ethyl)phenoxy)acetate] | 65 | 4200 | 4310 | 38 |

More lines, in order of falling EC50 (human TRPM8 [1]), values ahead:

| EC50 (human TRPM8 [1]) [nM] | EC50 (human TRPM8 [2]) [nM] | EC50 (pig TRPM8 [3]) [nM] | EC50 (pig TRPM8 [4]) [nM] | Compound |
| --- | --- | --- | --- | --- |
| 99.4 | 1400 | 9640 | 93.5 | COc1ccc(CCNC(=O)[C@]2(O)C[C@H](C)CC[C@H]2C(C)C)cc1OC [Example 113, (1S,2S,5R)-N-[2-(3,4-dimethoxyphenyl)ethyl]-1-hydroxy-2-isopropyl-5-methyl-cyclohexanecarboxamide] |
| 56.7 | 1500 | 1090 | 20 | CC(C)[C@@H]1CC[C@@H](C)C[C@@]1(O)C(=O)NCC(=O)Nc1ccc(O)cc1 [Example 88, (1S,2S,5R)-1-hydroxy-N-(2-((4-hydroxyphenyl)amino)-2-oxoethyl)-2-isopropyl-5-methylcyclohexane-1-carboxamide] |
| 36.8 | 1120 | 9910 | 35.5 | CC(=O)O[C@H](CNC(=O)[C@]1(O)C[C@H](C)CC[C@H]1C(C)C)c1ccccc1 [Example 3, (S)-2-((1S,2S,5R)-1-hydroxy-2-isopropyl-5-methylcyclohexane-1-carboxamido)-1-phenylethyl acetate] |
| 12 | 1410 | 3290 | 4 | CC(C)[C@@H]1CC[C@@H](C)C[C@@]1(O)C(=O)NCC(=O)c1cccc(F)c1F [Example 142, (1S,2S,5R)-N-[2-(2,3-difluorophenyl)-2-oxo-ethyl]-1-hydroxy-2-isopropyl-5-methyl-cyclohexanecarboxamide] |
| 3 | 1430 | 1510 | 2.1 | CC(C)[C@@H]1CC[C@@H](C)C[C@@]1(O)C(=O)NCCc1cccc(CO)c1 [Example 15, (1S,2S,5R)-1-hydroxy-N-(3-(hydroxymethyl)phenethyl)-2-isopropyl-5-methylcyclohexane-1-carboxamide] |
| 2.7 | 610 | 510 | 1.3 | CC(C)[C@@H]1CC[C@@H](C)C[C@@]1(O)C(=O)NCC(=O)c1ccc(F)c(F)c1 [Example 136, (1S,2S,5R)-N-[2-(3,4-difluorophenyl)-2-oxo-ethyl]-1-hydroxy-2-isopropyl-5-methyl-cyclohexanecarboxamide] |
| 1.2 | 460 | 430 | 0.9 | CC(C)[C@@H]1CC[C@@H](C)C[C@@]1(O)C(=O)NCC(=O)c1cccc(O)c1 [Example 39, (1S,2S,5R)-1-hydroxy-N-(2-(3-hydroxyphenyl)-2-oxoethyl)-2-isopropyl-5-methylcyclohexane-1-carboxamide] |
| 1.1 | 590 | 598 | 0.6 | CC(C)[C@@H]1CC[C@@H](C)C[C@@]1(O)C(=O)NC[C@H](F)c1ccccc1 [Example 179, (1S,2S,5R)—N-((2R)-2-fluoro-2-phenylethyl)-1-hydroxy-2-isopropyl-5-methylcyclohexane-1-carboxamide] |
